# In patent US9961848B2, “Soybean event 127 and methods related thereto” (EMPRESA BRASILEIRA DE PESQUISA AGROPECUARIA—EMBRAPA, priority 2009, dated 2018):
# Key:
# Format in all cases: in vivo
# [1] = tested on: DIGHO = Digitaria horizontalis; assay: Field weed control, burn down application; conditions: burn down 5 days before planting, g ai/ha Glyphosate 1080, Imazapic 70, Imazapic + imazapyr 70
# Excerpt: (§3) All the procedures from planting to harvest were the same for all three locations. The herbicides were applied at burn down five days before the soybean planting.
# (§4) A completely randomized block design with three replications was used.
# (§5) Imidazolinone-tolerant soybean derived from event 127 was planted 5 cm deep at population of 380,000 seeds/ha in 50 cm row spacing. The imidazolinones herbicides were applied with a nonionic adjuvant, Dash, at 0.25% v/v. A CO^2 backpack sprayer with 80015 low pressure nozzles delivering 170 l/ha at 190 kpa was used for all herbicide applications (Table 18).
# (§6) Crop injury was assessed 15 and 30 days after planting (DAP) based on a 0 to 100 scale where 0 is no injury and 100 is crop death. Herbicide efficacy was assessed at 15, 30 and 60 DAP based on a 0 to 100 scale, where 0 is no control and 100 is total control.
# [2] = tested on: IPOGR = Ipomoea grandifolia; assay: Field weed control, burn down application; conditions: burn down 5 days before planting, g ai/ha Glyphosate 1080, Imazapic 70, Imazapic + imazapyr 70
# Excerpt: as §3, §4, §5, §6
# [3] = tested on: BRAPL = Brachiaria plantaginea; assay: Field weed control, burn down application; conditions: burn down 5 days before planting, g ai/ha Glyphosate 1080, Imazapic 70, Imazapic + imazapyr 70
# Excerpt: as §3, §4, §5, §6
# [4] = tested on: GASPA = Galinsoga parviflora; assay: Field weed control, burn down application; conditions: burn down 5 days before planting, g ai/ha Glyphosate 1080, Imazapic 70, Imazapic + imazapyr 70
# Excerpt: as §3, §4, §5, §6
# BIDPI = Bidens pilosa = assay: Field weed control, burn down application; conditions: burn down 5 days before planting, g ai/ha Glyphosate 1080, Imazapic 70, Imazapic + imazapyr 70
# Excerpt: as §3, §4, §5, §6
# [5] = tested on: EPHHL = Euphorbia heterophylla; assay: Field weed control, burn down application; conditions: burn down 5 days before planting, g ai/ha Glyphosate 1080, Imazapic 70, Imazapic + imazapyr 70
# Excerpt: as §3, §4, §5, §6
# [6] = tested on: glyphosate resistant horseweed; assay: Greenhouse injury rate, postemergence application
# Procedure: (§1) Greenhouse studies were conducted to determine whether imidazolinone herbicides could be used in the control of undesired glyphosate tolerant weeds and crops growing in a cultivated area. […] Plants were maintained in a greenhouse with overhead watering.
# (§2) Postemergence sprays were conducted at the 2-true leaf stage for corn and soybean and at the 9-true leaf stage for horseweed. […] The percent overall injury rate was visually determined 14 days after treatment (DAT) and 25 days after treatment (DAT). […] The results of the postemergence tests are summarized in Table 20 and the results of the pre-emergence study are summarized in Table 21. Results are provided as averages of the 5 individual plants.
# [7] = tested on: glyphosate resistant corn; assay: Greenhouse injury rate, postemergence application; conditions: 14 DAT
# Procedure: as §1, §2
# [8] = tested on: glyphosate resistant soybean; assay: Greenhouse injury rate, postemergence application; conditions: 14 DAT
# Procedure: as §1, §2
# [9] = tested on: glyphosate resistant horseweed; assay: Greenhouse injury rate, preemergence application; conditions: 25 DAT
# Procedure: as §1, §2
# [10] = tested on: glyphosate resistant corn; assay: Greenhouse injury rate, preemergence application; conditions: 14 DAT
# Procedure: as §1, §2
# [11] = tested on: glyphosate resistant soybean; assay: Greenhouse injury rate, preemergence application; conditions: 14 DAT
# Procedure: as §1, §2
# CYPRO = Cyperus rotundus [12] = assay: Field weed control, burn down application; conditions: burn down 5 days before planting, g ai/ha Glyphosate 1080, Imazapic 70, Imazapic + imazapyr 70
# Excerpt: as §3, §4, §5, §6
# [13] = tested on: COMBE = Commelina benghalensis; assay: Field weed control, burn down application; conditions: burn down 5 days before planting, g ai/ha Glyphosate 1080, Imazapic 70, Imazapic + imazapyr 70
# Excerpt: as §3, §4, §5, §6
# [14] = tested on: COMBE = Commelina benghalensis; assay: Field weed control, early post-emergence application; conditions: gai/ha Imazapyr 72, Imazapyr + imazapic 70, Glyphosate 540
# [15] = tested on: RCHBR = Richardia brasiliensis; assay: as above; conditions: gai/ha Imazapyr 72, Imazapyr + imazapic 70, Glyphosate 540
# [16] = tested on: EPHHL = Euphorbia heterophylla; assay: as above; conditions: gai/ha Imazapyr 72, Imazapyr + imazapic 70, Glyphosate 540
# SIDRH = Sida rombifolia = assay: as above; conditions: gai/ha Imazapyr 72, Imazapyr + imazapic 70, Glyphosate 540
# [17] = tested on: IPOGR = Ipomoea grandifolia; assay: as above; conditions: gai/ha Imazapyr 72, Imazapyr + imazapic 70, Glyphosate 540
# [18] = tested on: BOILF = Spermacoce latifolia; assay: as above; conditions: gai/ha Imazapyr 72, Imazapyr + imazapic 70, Glyphosate 540
# CYPRO = Cyperus rotundus [19] = assay: as above; conditions: gai/ha Imazapyr 72, Imazapyr + imazapic 70, Glyphosate 540
smiles,measurement,setting,value
"Cc1cnc(C2=NC(=O)C(C)(C(C)C)N2)c(C(=O)O)c1 (stereo not drawn) [Imazapic, imazapic]",Efficacy (%),[1]; 30 DAT,95%
same,Efficacy (%),[1]; 60 DAT,86%
same,Efficacy (%),[2]; 30 DAT,75%
same,Efficacy (%),[2]; 60 DAT,73%
same,Efficacy (%),[3]; 30 DAT,85%
same,Efficacy (%),[3]; 60 DAT,79%
same,Efficacy (%),[4]; 30 DAT,84%
same,Efficacy (%),[4]; 60 DAT,78%
same,Efficacy (%),BIDPI = Bidens pilosa; 30 DAT,79%
same,Efficacy (%),BIDPI = Bidens pilosa; 60 DAT,73%
same,Efficacy (%),[5]; 30 DAT,98%
same,Efficacy (%),[5]; 60 DAT,86%
same,Average Overall Injury (%),"[6]; 14 DAT, 20 g ai/ha",56%
same,Average Overall Injury (%),"[6]; 14 DAT, 40 g ai/ha",59%
same,Average Overall Injury (%),"[6]; 14 DAT, 80 g ai/ha",80%
same,Average Overall Injury (%),"[6]; 14 DAT, 160 g ai/ha",92%
same,Average Overall Injury (%),"[6]; 14 DAT, 240 g ai/ha",94%
same,Average Overall Injury (%),"[6]; 25 DAT, 20 g ai/ha",27%
same,Average Overall Injury (%),"[6]; 25 DAT, 40 g ai/ha",28%
same,Average Overall Injury (%),"[6]; 25 DAT, 80 g ai/ha",69%
same,Average Overall Injury (%),"[6]; 25 DAT, 160 g ai/ha",77%
same,Average Overall Injury (%),"[6]; 25 DAT, 240 g ai/ha",88%
same,Average Overall Injury (%),[7]; 20 g ai/ha,83%
same,Average Overall Injury (%),[7]; 40 g ai/ha,87%
same,Average Overall Injury (%),[7]; 80 g ai/ha,93%
same,Average Overall Injury (%),[7]; 160 g ai/ha,99%
same,Average Overall Injury (%),[7]; 240 g ai/ha,99%
same,Average Overall Injury (%),[8]; 20 g ai/ha,35%
same,Average Overall Injury (%),[8]; 40 g ai/ha,61%
same,Average Overall Injury (%),[8]; 80 g ai/ha,71%
same,Average Overall Injury (%),[8]; 160 g ai/ha,87%
same,Average Overall Injury (%),[8]; 240 g ai/ha,96%
same,Average Overall Injury (%),[9]; 20 g ai/ha,65%
same,Average Overall Injury (%),[9]; 40 g ai/ha,90%
same,Average Overall Injury (%),[9]; 80 g ai/ha,99%
same,Average Overall Injury (%),[9]; 160 g ai/ha,99%
same,Average Overall Injury (%),[9]; 240 g ai/ha,99%
same,Average Overall Injury (%),[10]; 20 g ai/ha,32%
same,Average Overall Injury (%),[10]; 40 g ai/ha,38%
same,Average Overall Injury (%),[10]; 80 g ai/ha,67%
same,Average Overall Injury (%),[10]; 160 g ai/ha,86%
same,Average Overall Injury (%),[10]; 240 g ai/ha,90%
same,Average Overall Injury (%),[11]; 20 g ai/ha,12%
same,Average Overall Injury (%),[11]; 40 g ai/ha,39%
same,Average Overall Injury (%),[11]; 80 g ai/ha,60%
same,Average Overall Injury (%),[11]; 160 g ai/ha,70%
same,Average Overall Injury (%),[11]; 240 g ai/ha,81%
same,Efficacy (%),CYPRO = Cyperus rotundus [12]; 30 DAT,88%
same,Efficacy (%),CYPRO = Cyperus rotundus [12]; 60 DAT,76%
same,Efficacy (%),[13]; 30 DAT,75%
same,Efficacy (%),[13]; 60 DAT,64%
"O=C(O)CNCP(=O)(O)O [Glyphosate, glyphosate]",Efficacy,[14]; 15 DAT,70%
same,Efficacy,[14]; 30 DAT,61%
same,Efficacy,[14]; 60 DAT,50%
same,Efficacy,[15]; 15 DAT,78%
same,Efficacy,[15]; 30 DAT,57%
same,Efficacy,[16]; 15 DAT,85%
same,Efficacy,[16]; 30 DAT,77%
same,Efficacy,[16]; 60 DAT,72%
same,Efficacy (%),[1]; 30 DAT,60%
same,Efficacy (%),[1]; 60 DAT,41%
same,Efficacy (%),[2]; 30 DAT,23%
same,Efficacy (%),[2]; 60 DAT,15%
same,Efficacy,SIDRH = Sida rombifolia; 15 DAT,82%
same,Efficacy,SIDRH = Sida rombifolia; 30 DAT,77%
same,Efficacy,SIDRH = Sida rombifolia; 60 DAT,70%
same,Efficacy,[17]; 15 DAT,90%
same,Efficacy,[17]; 30 DAT,87%
same,Efficacy,[17]; 60 DAT,73%
same,Efficacy,[18]; 15 DAT,82%
same,Efficacy,[18]; 30 DAT,75%
same,Efficacy,[18]; 60 DAT,68%
same,Efficacy (%),[3]; 60 DAT,25%
same,Efficacy (%),[4]; 30 DAT,19%
same,Efficacy (%),[4]; 60 DAT,12%
same,Efficacy (%),BIDPI = Bidens pilosa; 30 DAT,25%
same,Efficacy (%),BIDPI = Bidens pilosa; 60 DAT,21%
same,Efficacy (%),[5]; 30 DAT,15%
same,Efficacy (%),[5]; 60 DAT,7%
same,Average Overall Injury (%),"[6]; 14 DAT, 774 g ae/ha",34%
same,Average Overall Injury (%),"[6]; 25 DAT, 774 g ae/ha",16%
same,Average Overall Injury (%),[7]; 774 g ae/ha,1%
same,Average Overall Injury (%),[8]; 774 g ae/ha,1%
same,Average Overall Injury (%),[9]; 774 g ae/ha,0%
same,Average Overall Injury (%),[10]; 774 g ae/ha,0%
same,Average Overall Injury (%),[11]; 774 g ae/ha,0%
same,Efficacy (%),[13]; 30 DAT,38%
same,Efficacy (%),[13]; 60 DAT,22%
CC(C)C1(C)N=C(c2ncccc2C(=O)O)NC1=O (stereo not drawn) [imazapyr],Efficacy,[14]; 15 DAT,93%
same,Efficacy,[14]; 30 DAT,87%
same,Efficacy,[14]; 60 DAT,80%
same,Efficacy,[15]; 15 DAT,86%
same,Efficacy,[15]; 30 DAT,83%
same,Efficacy,[15]; 60 DAT,77%
same,Efficacy,[16]; 15 DAT,92%
same,Efficacy,[16]; 30 DAT,85%
same,Efficacy,[16]; 60 DAT,83%
same,Efficacy,SIDRH = Sida rombifolia; 15 DAT,94%
same,Efficacy,SIDRH = Sida rombifolia; 30 DAT,87%
same,Efficacy,SIDRH = Sida rombifolia; 60 DAT,81%
same,Efficacy,[17]; 15 DAT,96%
same,Efficacy,[17]; 30 DAT,91%
same,Efficacy,[17]; 60 DAT,85%
same,Efficacy,[18]; 15 DAT,88%
same,Efficacy,[18]; 30 DAT,83%
same,Efficacy,[18]; 60 DAT,75%
same,Efficacy,CYPRO = Cyperus rotundus [19]; 15 DAT,95%
same,Efficacy,CYPRO = Cyperus rotundus [19]; 30 DAT,87%
same,Efficacy,CYPRO = Cyperus rotundus [19]; 60 DAT,81%
same,Average Overall Injury (%),"[6]; 14 DAT, 20 g ai/ha",70%
same,Average Overall Injury (%),"[6]; 14 DAT, 40 g ai/ha",79%
same,Average Overall Injury (%),"[6]; 14 DAT, 80 g ai/ha",90%
same,Average Overall Injury (%),"[6]; 14 DAT, 120 g ai/ha",96%
same,Average Overall Injury (%),"[6]; 14 DAT, 240 g ai/ha",97%
same,Average Overall Injury (%),"[6]; 25 DAT, 20 g ai/ha",44%
same,Average Overall Injury (%),"[6]; 25 DAT, 40 g ai/ha",73%
same,Average Overall Injury (%),"[6]; 25 DAT, 80 g ai/ha",97%
same,Average Overall Injury (%),"[6]; 25 DAT, 120 g ai/ha",99%
same,Average Overall Injury (%),"[6]; 25 DAT, 240 g ai/ha",99%
same,Average Overall Injury (%),[7]; 20 g ai/ha,96%
same,Average Overall Injury (%),[7]; 40 g ai/ha,98%
same,Average Overall Injury (%),[7]; 80 g ai/ha,99%
same,Average Overall Injury (%),[7]; 120 g ai/ha,100%
same,Average Overall Injury (%),[7]; 240 g ai/ha,100%
same,Average Overall Injury (%),[8]; 20 g ai/ha,75%
same,Average Overall Injury (%),[8]; 40 g ai/ha,96%
same,Average Overall Injury (%),[8]; 80 g ai/ha,97%
same,Average Overall Injury (%),[8]; 120 g ai/ha,98%
same,Average Overall Injury (%),[8]; 240 g ai/ha,99%
same,Average Overall Injury (%),[9]; 20 g ai/ha,46%
same,Average Overall Injury (%),[9]; 40 g ai/ha,63%
same,Average Overall Injury (%),[9]; 80 g ai/ha,84%
same,Average Overall Injury (%),[9]; 120 g ai/ha,96%
same,Average Overall Injury (%),[9]; 240 g ai/ha,88%
same,Average Overall Injury (%),[10]; 20 g ai/ha,37%
same,Average Overall Injury (%),[10]; 40 g ai/ha,47%
same,Average Overall Injury (%),[10]; 80 g ai/ha,65%
same,Average Overall Injury (%),[10]; 120 g ai/ha,81%
same,Average Overall Injury (%),[10]; 240 g ai/ha,91%
same,Average Overall Injury (%),[11]; 20 g ai/ha,41%
same,Average Overall Injury (%),[11]; 40 g ai/ha,43%
same,Average Overall Injury (%),[11]; 80 g ai/ha,66%
same,Average Overall Injury (%),[11]; 120 g ai/ha,83%
same,Average Overall Injury (%),[11]; 240 g ai/ha,87%
